Results: US20250145594A1, “MODULATORS OF THE INTEGRATED STRESS PATHWAY” (Calico Life Sciences LLC, priority 2020, published 2025)
pEC50: −log10 of the molar value.

test system: ATF4 luciferase reporter in HEK293T cells; experiment: ATF4-Luc assay (in vitro model of VWMD); format: cell-based, human; settings: Homo sapiens, HEK-293T, 7 h, HEK293T cells carrying the ATF4 luciferase reporter, 1 μg/mL tunicamycin, One Glo luminescence
Summary of the method: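 Tunicamycin (1 μg/mL) stress with co-added compound for 7 hours in HEK293T cells stably carrying an ATF4 5′-UTR–luciferase reporter. EC50 values come from the luminescent signal (One Glo).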

O=C(NC12CC(n3cc(-c4cnn(CC(F)(F)F)c4)cn3)(C1)C2)[C@H]1C[C@@H](O)c2cc(Cl)c(F)cc2O1 [Compound 564, (2R,4R)-6-chloro-7-fluoro-4-hydroxy-N-{3-[1′-(2,2,2-trifluoroethyl)-1H,1′H-[4,4′-bipyrazol]-1-yl]bicyclo[1.1.1]pentan-1-yl}-3,4-dihydro-2H-1-benzopyran-2-carboxamide] was tested. Which pEC50 did it give?
Its pEC50 is greater than 8.00.

With O=C(NC12CC(c3ccnc(OCCOC(F)(F)F)n3)(C1)C2)[C@H]1C[C@@H](O)c2cc(Cl)c(F)cc2O1 [Compound 469, (2R,4R)-6-chloro-7-fluoro-4-hydroxy-N-(3-{2-[2-(trifluoromethoxy)ethoxy]pyrimidin-4-yl)bicyclo[1.1.1]pentan-1-yl}-3,4-dihydro-2H-1-benzopyran-2-carboxamide] as the compound, how does the pEC50 read?
The pEC50 was greater than 8.00.

How did the pEC50 turn out when O=C(NC12CC(n3cc(CCCOC(F)(F)F)cn3)(C1)C2)[C@H]1CC(O)c2cc(Cl)ccc2O1 (stereo in doubt) [Compound 463, (2R,4R)-6-chloro-4-hydroxy-N-(3-{4-[3-(trifluoromethoxy)propyl]-1H-pyrazol-1-yl}bicyclo[1.1.1]pentan-1-yl)-3,4-dihydro-2H-1-benzopyran-2-carboxamide] was run?
The pEC50 was greater than 8.00.

O=C(NC12CC(n3cnc(-c4ccc(Cl)cc4F)c3)(C1)C2)[C@H]1C[C@@H](O)c2cc(Cl)ccc2O1 [Compound 343, (2R,4R)-6-chloro-N-{3-[4-(4-chloro-2-fluorophenyl)-1H-imidazol-1-yl]bicyclo[1.1.1]pentan-1-yl}-4-hydroxy-3,4-dihydro-2H-1-benzopyran-2-carboxamide] was tested. Which pEC50 did it give?
Its pEC50 is greater than 8.00.

O=C(COc1ccc(Cl)c(F)c1)NC12CC(n3cc(C(=O)N4CC[C@H](OC(F)(F)F)C4)nn3)(C1)C2 [Compound 599, 2-(4-chloro-3-fluorophenoxy)-N-(3-{4-[(3S)-3-(trifluoromethoxy)pyrrolidine-1-carbonyl]-1H-1,2,3-triazol-1-yl}bicyclo[1.1.1]pentan-1-yl)acetamide] was tested. Which pEC50 did it give?
Its pEC50 is greater than 8.00.

O=C(NC12CC(n3cc(-c4ccc(OC(F)(F)F)cn4)cn3)(C1)C2)[C@H]1C[C@@H](O)c2cc(C(F)(F)F)ccc2O1 [Compound 403, (2R,4R)-4-hydroxy-N-(3-{4-[5-(trifluoromethoxy)pyridin-2-yl]-1H-pyrazol-1-yl}bicyclo[1.1.1]pentan-1-yl)-6-(trifluoromethyl)-3,4-dihydro-2H-1-benzopyran-2-carboxamide] was tested. Which pEC50 did it give?
The pEC50 was greater than 8.00.

O=C(NC12CCC(n3cc(-c4ccc(C(F)(F)F)cn4)cn3)(C1)C2)[C@H]1C[C@@H](O)c2cc(Cl)ccc2O1 [Compound 626, (2R,4R)-6-chloro-4-hydroxy-N-(4-{4-[5-(trifluoromethyl)pyridin-2-yl]-1H-pyrazol-1-yl}bicyclo[2.1.1]hexan-1-yl)-3,4-dihydro-2H-1-benzopyran-2-carboxamide] was tested. Which pEC50 did it give?
Its pEC50 is 7.30 to 8.00.

O=C(NC12CC(n3cc(-c4ccc(C(F)(F)F)cn4)cn3)(C1)C2)[C@@H]1CNc2cc(Cl)ccc2O1 [Compound 573, (2S)-6-chloro-N-(3-{4-[5-(trifluoromethyl)pyridin-2-yl]-1H-pyrazol-1-yl}bicyclo[1.1.1]pentan-1-yl)-3,4-dihydro-2H-1,4-benzoxazine-2-carboxamide] was tested. Which pEC50 did it give?
Its pEC50 is 7.30 to 8.00.

How did the pEC50 turn out when O=C(NC12CC(n3cnc(C(=O)N4CCC[C@@H](OC(F)(F)F)C4)c3)(C1)C2)[C@H]1C[C@@H](O)c2cc(Cl)ccc2O1 [Compound 392, (2R,4R)-6-chloro-4-hydroxy-N-(3-{4-[(3R)-3-(trifluoromethoxy)piperidine-1-carbonyl]-1H-imidazol-1-yl}bicyclo[1.1.1]pentan-1-yl)-3,4-dihydro-2H-1-benzopyran-2-carboxamide] was run?
Its pEC50 is 6.30 to 6.60.

How did the pEC50 turn out when O=C(CO[C@H]1C[C@@H](OC(F)(F)F)C1)NC12CC(NC(=O)[C@H]3C[C@@H](O)c4cc(Cl)c(F)cc4O3)(C1)C2 [Compound 461, (2R,4R)-6-chloro-7-fluoro-4-hydroxy-N-[3-(2-{[(1s,3S)-3-(trifluoromethoxy)cyclobutyl]oxy}acetamido)bicyclo[1.1.1]pentan-1-yl]-3,4-dihydro-2H-1-benzopyran-2-carboxamide] was run?
Its pEC50 is greater than 8.00.

With O=C(N[C@H]1CC[C@H](n2cc(-c3ccc(OC(F)(F)F)cn3)cn2)CC1)[C@H]1C[C@@H](O)c2cc(Cl)ccc2O1 [Compound 481, (2R,4R)-6-chloro-4-hydroxy-N-[(1r,4R)-4-{4-[5-(trifluoromethoxy)pyridin-2-yl]-1H-pyrazol-1-yl}cyclohexyl]-3,4-dihydro-2H-1-benzopyran-2-carboxamide] as the compound, how does the pEC50 read?
Its pEC50 is greater than 8.00.

O=C(NC12CC(n3cc(-c4ccc(OC(F)(F)F)cn4)cn3)(C1)C2)[C@H]1C[C@H](O)c2cc(Cl)c(F)cc2O1 [Compound 476, (2R,4S)-6-chloro-7-fluoro-4-hydroxy-N-(3-{4-[5-(trifluoromethoxy)pyridin-2-yl]-1H-pyrazol-1-yl}bicyclo[1.1.1]pentan-1-yl)-3,4-dihydro-2H-1-benzopyran-2-carboxamide] was tested. Which pEC50 did it give?
Its pEC50 is greater than 8.00.

How did the pEC50 turn out when O=C(NC12CC(n3cc(OCCOC(F)(F)F)cn3)(C1)C2)C1COc2cc(Cl)c(Cl)cc2O1 (stereo not shown) [Compound 458, 6,7-dichloro-N-(3-{4-[2-(trifluoromethoxy)ethoxy]-1H-pyrazol-1-yl}bicyclo[1.1.1]pentan-1-yl)-2,3-dihydro-1,4-benzodioxine-2-carboxamide] was run?
Its pEC50 is 7.30 to 8.00.

O=C(NC12CC(n3cc([C@H]4C[C@@H](OC(F)(F)F)C4)cn3)(C1)C2)[C@H]1C[C@@H](O)c2cc(Cl)ccc2O1 [Compound 330, (2R,4R)-6-chloro-4-hydroxy-N-(3-{4-[cis-3-(trifluoromethoxy)cyclobutyl]-1H-pyrazol-1-yl}bicyclo[1.1.1]pentan-1-yl)-3,4-dihydro-2H-1-benzopyran-2-carboxamide] was tested. Which pEC50 did it give?
Its pEC50 is greater than 8.00.

COc1ccc2nn([C@H]3CC[C@H](NC(=O)[C@H]4C[C@@H](O)c5cc(Cl)ccc5O4)CC3)cc2n1 [Compound 508, (2R,4R)-6-chloro-4-hydroxy-N-[(1r,4R)-4-(5-methoxy-2H-pyrazolo[4,3-b]pyridin-2-yl)cyclohexyl]-3,4-dihydro-2H-1-benzopyran-2-carboxamide] was tested. Which pEC50 did it give?
Its pEC50 is 7.30 to 8.00.

O=C(NC12CC(n3cc(-c4ccc(OC(F)(F)F)cn4)cn3)(C1)C2)[C@@H]1C[C@@H](O)c2cc(C(F)(F)F)ccc2O1 [Compound 550, (2S,4R)-4-hydroxy-N-(3-{4-[5-(trifluoromethoxy)pyridin-2-yl]-1H-pyrazol-1-yl}bicyclo[1.1.1]pentan-1-yl)-6-(trifluoromethyl)-3,4-dihydro-2H-1-benzopyran-2-carboxamide] was tested. Which pEC50 did it give?
Its pEC50 is greater than 8.00.

With O=C(N[C@H]1CC[C@H](n2cc(OCCOC(F)(F)F)cn2)CC1)[C@H]1C[C@@H](O)c2cc(Cl)ccc2O1 [Compound 421, (2R,4R)-6-chloro-4-hydroxy-N-[(1r,4R)-4-{4-[2-(trifluoromethoxy)ethoxy]-1H-pyrazol-1-yl}cyclohexyl]-3,4-dihydro-2H-1-benzopyran-2-carboxamide] as the compound, how does the pEC50 read?
Its pEC50 is greater than 8.00.

With O=C(NC12CC(n3cnc(C(=O)N4CC(COC(F)(F)F)C4)c3)(C1)C2)[C@H]1C[C@@H](O)c2cc(Cl)ccc2O1 [Compound 368, (2R,4R)-6-chloro-4-hydroxy-N-[3-(4-{3-[(trifluoromethoxy)methyl]azetidine-1-carbonyl}-1H-imidazol-1-yl)bicyclo[1.1.1]pentan-1-yl]-3,4-dihydro-2H-1-benzopyran-2-carboxamide] as the compound, how does the pEC50 read?
The pEC50 was 7.30 to 8.00.

How did the pEC50 turn out when O=C(NC12CC(n3cc(C(=O)N4CC[C@H](OC(F)(F)F)C4)cn3)(C1)C2)[C@@H]1C[C@@H](O)c2cc(Cl)ccc2O1 [Compound 324, (2S,4R)-6-chloro-4-hydroxy-N-(3-{4-[(3S)-3-(trifluoromethoxy)pyrrolidine-1-carbonyl]-1H-pyrazol-1-yl}bicyclo[1.1.1]pentan-1-yl)-3,4-dihydro-2H-1-benzopyran-2-carboxamide] was run?
The pEC50 was greater than 8.00.

How did the pEC50 turn out when O=C(COc1ccc(Cl)c(F)c1)NC12CCC(n3cc(OCCOC(F)(F)F)cn3)(C1)C2 [Compound 595, 2-(4-chloro-3-fluorophenoxy)-N-(4-{4-[2-(trifluoromethoxy)ethoxy]-1H-pyrazol-1-yl}bicyclo[2.1.1]hexan-1-yl)acetamide] was run?
Its pEC50 is 6.30 to 6.60.

How did the pEC50 turn out when O=C(NC12CC(c3cnn(CCCOC(F)(F)F)c3)(C1)C2)[C@H]1C[C@@H](O)c2cc(Cl)ccc2O1 [Compound 528, (2R,4R)-6-chloro-4-hydroxy-N-(3-{1-[3-(trifluoromethoxy)propyl]-1H-pyrazol-4-yl}bicyclo[1.1.1]pentan-1-yl)-3,4-dihydro-2H-1-benzopyran-2-carboxamide] was run?
Its pEC50 is 7.30 to 8.00.

With O=C(NC12CC(n3cc(-c4ccc(C(F)(F)F)cn4)cn3)(C1)C2)[C@@H]1C[C@@H](O)c2cc(Cl)ccc2O1 [Compound 317, (2S,4R)-6-chloro-4-hydroxy-N-(3-{4-[5-(trifluoromethyl)pyridin-2-yl]-1H-pyrazol-1-yl}bicyclo[1.1.1]pentan-1-yl)-3,4-dihydro-2H-1-benzopyran-2-carboxamide] as the compound, how does the pEC50 read?
The pEC50 was 7.30 to 8.00.

How did the pEC50 turn out when O=C(NC12CC(n3cc(-c4ccc(C(F)(F)F)cn4)cn3)(C1)C2)[C@@H]1C[C@@H](O)c2cc(C(F)(F)F)ccc2O1 [Compound 548, (2S,4R)-4-hydroxy-6-(trifluoromethyl)-N-(3-{4-[5-(trifluoromethyl)pyridin-2-yl]-1H-pyrazol-1-yl}bicyclo[1.1.1]pentan-1-yl)-3,4-dihydro-2H-1-benzopyran-2-carboxamide] was run?
The pEC50 was greater than 8.00.

With O=C(COc1ccc(Cl)c(F)c1)NC12CC(c3ccc(OCCCOC(F)(F)F)nc3)(C1)C2 [Compound 455, 2-(4-chloro-3-fluorophenoxy)-N-(3-{6-[3-(trifluoromethoxy)propoxy]pyridin-3-yl}bicyclo[1.1.1]pentan-1-yl)acetamide] as the compound, how does the pEC50 read?
The pEC50 was 6.60 to 7.30.

With O=C(NC12CC(n3cc(-c4ccn(C(F)(F)F)n4)cn3)(C1)C2)[C@H]1C[C@@H](O)c2cc(Cl)c(F)cc2O1 [Compound 562, (2R,4R)-6-chloro-7-fluoro-4-hydroxy-N-{3-[1-(trifluoromethyl)-1H,1′H-[3,4‘-bipyrazol]-1’-yl]bicyclo[1.1.1]pentan-1-yl}-3,4-dihydro-2H-1-benzopyran-2-carboxamide] as the compound, how does the pEC50 read?
Its pEC50 is greater than 8.00.
